Earlier results on one compound are cited in patent publication US20140044668A1, “Methods for Predicting Cardiovascular Risks and Responsiveness to Statin Therapy Using SNPs” (THE OHIO STATE UNIVERSITY, priority 2011, published 2014).

In this series the target is T1, CETP (Homo sapiens, UniProt P11597).
T1 sequence (P11597 18-493): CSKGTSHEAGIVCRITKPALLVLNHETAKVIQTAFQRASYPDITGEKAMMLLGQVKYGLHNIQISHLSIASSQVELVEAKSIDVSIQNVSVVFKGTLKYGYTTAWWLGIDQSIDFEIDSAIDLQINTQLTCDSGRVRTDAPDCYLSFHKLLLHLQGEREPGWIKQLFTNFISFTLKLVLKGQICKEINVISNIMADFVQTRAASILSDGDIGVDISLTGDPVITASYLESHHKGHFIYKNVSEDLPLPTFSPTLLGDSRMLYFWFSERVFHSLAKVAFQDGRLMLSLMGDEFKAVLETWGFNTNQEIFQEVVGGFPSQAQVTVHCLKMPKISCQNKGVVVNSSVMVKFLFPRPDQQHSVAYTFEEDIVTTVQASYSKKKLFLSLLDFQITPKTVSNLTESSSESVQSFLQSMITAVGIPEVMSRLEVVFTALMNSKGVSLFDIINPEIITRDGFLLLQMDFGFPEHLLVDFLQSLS
The conditions noted are these: in vivo.

With `CCOC(=O)N1c2ccc(C(F)(F)F)cc2[C@@H](N(Cc2cc(C(F)(F)F)cc(C(F)(F)F)c2)C(=O)OC)C[C@H]1CC` [torcetrapib], the HDL entry is “HDL increased”, the LDL result was “LDL decreased substantially” and the cardiovascular events result was “increase cardiovascular events”.
